Values quoted from earlier work in US20080311196A1, “All Day Rhinitic Condition Treatment Regimen” (priority 2006, published 2008).

Assays:
histamine H1-receptor = histamine H1-receptor (Homo sapiens, UniProt P35367); conditions: E-isomer versus Z-isomer; fit in the histamine H1-receptor binding site
histamine H1-receptor, sequence (P35367 whole entry, species assumed): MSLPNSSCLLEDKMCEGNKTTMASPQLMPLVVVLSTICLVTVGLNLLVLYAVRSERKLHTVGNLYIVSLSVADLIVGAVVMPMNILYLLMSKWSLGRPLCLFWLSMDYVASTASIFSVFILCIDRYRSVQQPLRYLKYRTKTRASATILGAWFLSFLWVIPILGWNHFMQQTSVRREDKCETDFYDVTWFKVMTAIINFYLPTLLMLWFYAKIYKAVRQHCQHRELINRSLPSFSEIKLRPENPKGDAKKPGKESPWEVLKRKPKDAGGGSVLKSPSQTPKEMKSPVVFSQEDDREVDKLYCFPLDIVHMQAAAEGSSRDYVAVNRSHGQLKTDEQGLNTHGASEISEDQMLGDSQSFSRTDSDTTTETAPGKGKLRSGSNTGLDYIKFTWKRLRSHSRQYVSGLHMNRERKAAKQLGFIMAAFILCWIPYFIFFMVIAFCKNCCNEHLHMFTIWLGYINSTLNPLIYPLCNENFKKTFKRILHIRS

Compound | time of maximal pharmacological sedation after dosing (after dosing) [hour] | persistence of sedation following dosing (following dosing, usually not longer than) [h] | duration of inhibition of the symptoms of rhinitis (single dose) | potency relative to Z-triprolidine (histamine H1-receptor)
CN(C)CCC(c1ccc(Cl)cc1)c1ccccn1 (stereo not shown) [chlorpheniramine] | 3 to 4 | 6 to 8 | more than 24 hours | 
E-triprolidine |  |  |  | E-triprolidine, for example, is 1000-fold
